From ChEMBL document CHEMBL1157052, “Novel cyclic-imide peptidomimetics as aminopeptidase N inhibitors. Structure-based design, chemistry and activity evaluation. II” (Eur J Med Chem, 2010)
Calls of active or inactive are those of the source. The calls are words filed in the database; no cut-off is given here.

Assays:
[1] = target: Aminopeptidase N (Sus scrofa) (UniProt P15145); experiment: Inhibition of aminopeptidase N
HL-60 = experiment: Antiproliferative activity against human HL60 cells after 48 hrs by MTT assay; settings: HL-60, 48 h
H22 = experiment: Antimetastatic activity against mouse H22 cells transplanted in mouse lung assessed as inhibition of tumor growth on the surface of lungs at 50 mg/kg/day, po for 6 days a week for 2 weeks; format: functional; settings: read-out: TGI
[2] = Antimetastatic activity against human ES2 cells xenografted in mouse lung assessed as inhibition of tumor growth at 50 mg/kg/day, po for 6 days a week for 2 weeks; format: functional; settings: ES-2, read-out: TGI
K562 = experiment: Antiproliferative activity against human K562 cells at 400 ug/ml after 48 hrs by MTT assay; format: functional, cell-based
[3] = Antimetastatic activity against human ES2 cells xenografted in mouse lung assessed as inhibition of tumor growth at 10 mg/kg/day, po for 6 days a week for 2 weeks; format: functional; settings: ES-2, read-out: TGI

Chain of Aminopeptidase N (Sus scrofa) (P15145 whole entry, looked up): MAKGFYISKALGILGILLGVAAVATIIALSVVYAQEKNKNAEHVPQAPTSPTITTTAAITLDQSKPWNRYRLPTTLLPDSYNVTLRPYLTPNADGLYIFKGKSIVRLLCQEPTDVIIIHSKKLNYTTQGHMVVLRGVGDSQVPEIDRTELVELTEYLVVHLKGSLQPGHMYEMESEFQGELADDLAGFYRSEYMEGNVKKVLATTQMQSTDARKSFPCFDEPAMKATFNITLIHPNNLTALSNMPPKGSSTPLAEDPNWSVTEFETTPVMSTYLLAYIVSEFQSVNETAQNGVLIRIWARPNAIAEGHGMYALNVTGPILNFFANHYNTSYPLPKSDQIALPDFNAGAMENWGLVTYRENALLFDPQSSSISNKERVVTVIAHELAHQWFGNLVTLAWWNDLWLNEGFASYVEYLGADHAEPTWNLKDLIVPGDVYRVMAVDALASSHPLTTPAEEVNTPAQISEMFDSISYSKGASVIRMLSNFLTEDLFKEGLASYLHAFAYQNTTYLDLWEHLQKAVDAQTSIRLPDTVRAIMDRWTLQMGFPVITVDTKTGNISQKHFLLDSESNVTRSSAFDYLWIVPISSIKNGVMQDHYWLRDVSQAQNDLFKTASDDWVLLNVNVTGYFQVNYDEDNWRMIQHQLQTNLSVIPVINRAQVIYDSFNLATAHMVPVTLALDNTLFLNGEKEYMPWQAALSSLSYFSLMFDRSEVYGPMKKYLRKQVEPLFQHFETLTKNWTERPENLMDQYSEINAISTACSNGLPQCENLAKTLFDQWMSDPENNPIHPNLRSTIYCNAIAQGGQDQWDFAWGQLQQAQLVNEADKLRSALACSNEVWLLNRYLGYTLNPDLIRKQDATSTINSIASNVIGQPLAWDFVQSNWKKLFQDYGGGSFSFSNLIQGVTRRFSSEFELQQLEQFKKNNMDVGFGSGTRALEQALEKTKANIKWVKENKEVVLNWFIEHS

| SMILES | IC50 [1] [µM] | IC50 (HL-60) [µM] | inhibition in vivo at 50 mg/kg/day (H22) [%] | inhibition in vivo at 50 mg/kg/day [2] [%] | Activity (K562) | inhibition in vivo at 10 mg/kg/day [3] [%] |
| --- | --- | --- | --- | --- | --- | --- |
| COc1cc(C(=O)N[C@H]2CCC(=O)N(CC(=O)NO)C2=O)cc(OC)c1OC | 3.1 | – | – | – | – | – |
| N[C@@H](Cc1ccc(O)cc1)C(=O)N[C@H]1CCC(=O)N(CC(=O)NO)C1=O | – | 147 | 62.7 | – | – | – |
| CC(C)C[C@H](NC(=O)[C@@H](O)[C@H](N)Cc1ccccc1)C(=O)O [UBENIMEX] | – | – | 45.4 | 36.2 | – | – |
| N[C@@H](Cc1ccccc1)C(=O)N[C@H]1CCC(=O)N(CC(=O)NO)C1=O | – | 105 | 72.9 | – | inactive | 30.9 |
